The term IC50 denotes the concentration needed to halve the response being measured.

This passage reports IC50 results from US9409907B2, “Inhibitor compounds” (Cancer Research Technology Limited, priority 2012, dated 2016).

A value given as a limit tells only on which side of the number the result lay.

Sequence of full length MPS1 (P33981 whole entry): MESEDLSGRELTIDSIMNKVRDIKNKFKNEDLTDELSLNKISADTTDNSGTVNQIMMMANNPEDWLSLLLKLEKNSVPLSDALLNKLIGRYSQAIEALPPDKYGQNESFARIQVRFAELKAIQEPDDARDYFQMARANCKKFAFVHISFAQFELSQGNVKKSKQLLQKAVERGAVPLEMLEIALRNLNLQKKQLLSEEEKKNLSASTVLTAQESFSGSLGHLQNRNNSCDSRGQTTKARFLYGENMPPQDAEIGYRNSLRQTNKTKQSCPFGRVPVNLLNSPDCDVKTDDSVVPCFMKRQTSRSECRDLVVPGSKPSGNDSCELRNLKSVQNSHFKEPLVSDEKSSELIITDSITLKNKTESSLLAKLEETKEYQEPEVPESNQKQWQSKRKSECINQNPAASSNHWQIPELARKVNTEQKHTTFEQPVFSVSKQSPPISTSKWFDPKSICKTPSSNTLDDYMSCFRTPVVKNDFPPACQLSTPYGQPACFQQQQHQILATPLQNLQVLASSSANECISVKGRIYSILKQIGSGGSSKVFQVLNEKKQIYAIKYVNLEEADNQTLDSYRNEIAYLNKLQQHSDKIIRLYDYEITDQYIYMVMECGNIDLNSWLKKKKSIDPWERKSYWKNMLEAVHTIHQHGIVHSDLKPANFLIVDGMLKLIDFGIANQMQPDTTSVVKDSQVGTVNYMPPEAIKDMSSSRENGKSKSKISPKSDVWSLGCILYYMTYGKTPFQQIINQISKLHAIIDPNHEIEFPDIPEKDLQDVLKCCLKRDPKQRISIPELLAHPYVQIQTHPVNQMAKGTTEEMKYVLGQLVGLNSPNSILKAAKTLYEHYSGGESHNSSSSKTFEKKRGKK

This experiment deals with full length MPS1 (Homo sapiens (Human), UniProt P33981). The experiment is described as follows: Measurement of inhibition of MPS1 kinase (Caliper EZ reader mobility-shift enzyme assay). The class given is biochemical. The settings on record: full length MPS1 12.5 nM or 3 nM, H236 peptide 5 μM, ATP 10 μM, 60 min at room temperature. As to the method:
Measurement of Inhibition of MPS1 Kinase
The reaction was carried out for 60 min at room temperature and stopped by the addition of buffer (10 μl) containing 20 mM EDTA, 0.05% (v/v) Brij-35, in 0.1M HEPES-buffered saline (Free acid, Sigma, UK). The plate was read on a Caliper EZ reader II (Caliper Life Sciences).
The % inhibition of the compounds is calculated relative to the means of selected control wells.
Consider `COc1cc(C(=O)N2CC(OC)C2)ccc1Nc1cc2c(-c3cnn(C4CCN(C)CC4)c3)cccc2cn1` [Example 19, (3-Methoxy-4-((5-(1-(1-methylpiperidin-4-yl)-1H-pyrazol-4-yl)isoquinolin-3-yl)amino)phenyl)(3-methoxyazetidin-1-yl)methanone], for which the IC50 turned out to be 31 nM.
In the case of `COc1cc(-c2cnn(CCO)c2)ccc1Nc1ncc2ccnc(NC3CCCCC3)c2n1` [Example 43, 2-(4-(4-((8-(cyclohexylamino)pyrido[3,4-d]pyrimidin-2-yl)amino)-3-methoxyphenyl)-1H-pyrazol-1-yl)ethanol], the IC50 was 14 nM.
With `CCn1cc(-c2ccc(Nc3ncc4ccnc(NCC(C)(C)OC)c4n3)c(OC)c2)cn1` [Example 152, N^2-(4-(1-ethyl-1H-pyrazol-4-yl)-2-methoxyphenyl)-N^8-(2-methoxy-2-methylpropyl)pyrido[3,4-d]pyrimidine-2,8-diamine], the half-maximal inhibitory concentration (IC50) was found to be 7 nM.
As for `COc1cc(-c2cncn2C)ccc1Nc1ncc2ccnc(NCC(C)(C)C)c2n1` [Example 47, N2-(2-methoxy-4-(1-methyl-1H-imidazol-5-yl)phenyl)-N8-neopentylpyrido[3,4-d]pyrimidine-2,8-diamine], the half-inhibitory concentration (IC50) is 2 nM.
With `COc1cc(-c2cnc(C)n2C)ccc1Nc1ncc2cc(C)nc(NCC(C)(C)C)c2n1` [Example 177, N2-(4-(1,2-dimethyl-1H-imidazol-5-yl)-2-methoxyphenyl)-6-methyl-N8-neopentylpyrido[3,4-d]pyrimidine-2,8-diamine] the figure was 5 nM.
On to `COCCn1c(-c2ccc(Nc3ncc4ccnc(NCC5(C)CCOC5)c4n3)c(OC)c2)cnc1C` (centres unmarked) [Example 187], for which the half-inhibitory concentration (IC50) was found to be 2 nM.
With `COc1nc(-c2cnnn2C)ccc1Nc1ncc2ccnc(NCC(C)(C)OC)c2n1` [Example 166, N^8-(2-Methoxy-2-methylpropyl)-N^2-(2-methoxy-6-(1-methyl-1H-1,2,3-triazol-5-yl)pyridin-3-yl)pyrido[3,4-d]pyrimidine-2,8-diamine] the figure was 3 nM; with `COc1cc(-c2nncn2C)ccc1Nc1ncc2cc(C)nc(NCC(C)(C)OC)c2n1` [Example 180], 3 nM; with `COc1cc(-c2cnn(C)c2)ccc1Nc1ncc2ccnc(NC3CCCC3)c2n1` [Example 39], 7 nM.
To `COCC(C)(C)CNc1nccc2cnc(Nc3ccc(-c4cnn(C)c4)cc3OC)nc12` [Example 85, N8-(3-methoxy-2,2-dimethylpropyl)-N2-(2-methoxy-4-(1-methyl-1H-pyrazol-4-yl)phenyl)pyrido[3,4-d]pyrimidine-2,8-diamine] belongs 24 nM.
To `COC1CN(C(=O)c2ccc(Nc3cc4c(-c5cnn(C)c5)cccc4cn3)c(Cl)c2)C1` [Example 22] belongs 100 nM.
As for `CCOc1cc(-c2nncn2C)ccc1Nc1ncc2ccnc(NCC(C)(C)OC)c2n1` [Example 188], the IC50 worked out at 2 nM.
With `COc1cc(-c2cnn(C)c2)ccc1Nc1ncc2ccnc(NC3COC3)c2n1` [Example 111, N^2-(2-methoxy-4-(1-methyl-1H-pyrazol-4-yl)phenyl)-N^8-(oxetan-3-yl)pyrido[3,4-d]pyrimidine-2,8-diamine] the figure was greater than 1000 nM; with `COc1cc(C(=O)N2CC(OC)C2)ccc1Nc1cc2c(-c3ccnn3C)cccc2cn1` [Example 9, (3-methoxy-4-((5-(1-methyl-1H-pyrazol-5-yl)isoquinolin-3-yl)amino)phenyl)(3-methoxyazetidin-1-yl)methanone], 22 nM; with `COc1cc(-c2cn(C)nc2C)ccc1Nc1ncc2cc(C)nc(NCC(C)(C)OC)c2n1` [Example 192], 5 nM.
With `COc1cc(-c2cnn(C)c2)ccc1Nc1ncc2ccnc(N3CCC(C#N)CC3)c2n1` [Example 140, 1-(2-(2-Methoxy-4-(1-methyl-1H-pyrazol-4-yl)phenylamino)pyrido[3,4-d]pyrimidin-8yl)piperidine-4-carbonitrile] the figure was 4 nM.
Turning to `COc1cc(-c2cnn(C)c2)ccc1Nc1ncc2cc(C3CC3)nc(N3CCC4(COC4)C3)c2n1` [Example 136, 6-Cyclopropyl-N-(2-methoxy-4-(1-methyl-1H-pyrazol-4-yl)phenyl)-8-(2-oxa-6-azaspiro[3.4]octan-6-yl)pyrido[3,4-d]pyrimidin-2-amine], the IC50 amounted to 93 nM.
To `COc1cc(C(=O)N2CC(OC)C2)ccc1Nc1cc2c(-c3cnn(C4CCNCC4)c3)cccc2cn1` [Example 20, (3-Methoxy-4-((5-(1-(piperidin-4-yl)-1H-pyrazol-4-yl)isoquinolin-3-yl)amino)phenyl)(3-methoxyazetidin-1-yl)methanone] belongs 20 nM; to `COc1cc(-c2cn(C)nc2C)ccc1Nc1ncc2ccnc(NCC(C)(C)OC)c2n1` [Example 190], 3 nM; to `CN(C)C(=O)c1ccc(Nc2cc3c(-c4cnn(C)c4)cccc3cn2)c(Cl)c1` [Example 26], 78 nM.
To `COc1cc(C(=O)N2CC(OC)C2)ccc1Nc1cc2c(-c3cnn(C4CCN(C(=O)OC(C)(C)C)CC4)c3)cccc2cn1` [Example 3, tert-butyl 4-(4-(3-((2-methoxy-4-(3-methoxyazetidine-1-carbonyl)phenyl)-amino)isoquinolin-5-yl)-1H-pyrazol-1-yl)piperidine-1-carboxylate] belongs 125 nM.
To `CS(=O)(=O)c1ccc(Nc2ncc3ccnc(N4CCC5(COC5)C4)c3n2)c(Cl)c1` [Example 199] belongs 25 nM.
Consider `CC(C)(C)CNc1nccc2cnc(Nc3ccc(N4CCOCC4)cc3Cl)nc12` [Example 174, N2-(2-chloro-4-morpholinophenyl)-N8-neopentylpyrido[3,4-d]pyrimidine-2,8-diamine], for which the 50% inhibitory concentration (IC50) stood at 10 nM.
Turning to `COc1cc(C(=O)N2CC(OC)C2)ccc1Nc1ncc2ccnc(NCC(C)(C)OC)c2n1` [Example 193], the IC50 is 4 nM.
To `COc1cc(-c2cnn(C)c2)ccc1Nc1ncc2ccnc(-c3ccncc3)c2n1` [Example 209, N-(2-Methoxy-4-(1-methyl-1H-pyrazol-4-yl)phenyl)-8-(pyridin-4-yl)pyrido[3,4-d]pyrimidin-2-amine pyridin-4-ylboronate] belongs 7 nM; to `CCOc1cc(-c2cnn(C)c2)ccc1Nc1ncc2ccnc(NCC3CC3)c2n1` [Example 101, N8-(cyclopropylmethyl)-N2-(2-ethoxy-4-(1-methyl-1H-pyrazol-4-yl)phenyl)pyrido[3,4-d]pyrimidine-2,8-diamine], 49 nM.
To `COc1cc(-c2nnnn2C)ccc1Nc1ncc2ccnc(NCC(C)(C)OC)c2n1` [Example 163, N^8-(2-Methoxy-2-methylpropyl)-N^2-(2-methoxy-4-(1-methyl-1H-tetrazol-5-yl)phenyl)pyrido[3,4-d]pyrimidine-2,8-diamine] belongs 2 nM.
To `COc1cc(N2CCN(S(C)(=O)=O)CC2)ccc1Nc1ncc2cc(C)nc(NCC(C)(C)C)c2n1` [Example 183] belongs 16 nM; to `COc1cc(N2CCC(N3CCOCC3)CC2)ccc1Nc1ncc2ccnc(NCC(C)(C)C)c2n1` [Example 170, N2-(2-methoxy-4-(4-morpholinopiperidin-1-yl)phenyl)-N8-neopentylpyrido[3,4-d]pyrimidine-2,8-diamine], 4 nM; to `COc1cc(N2CCN(S(C)(=O)=O)CC2)ccc1Nc1ncc2ccnc(NCC(C)(C)C)c2n1` [Example 176, N2-(2-methoxy-4-(4-(methylsulfonyl)piperazin-1-yl)phenyl)-N8-neopentylpyrido[3,4-d]pyrimidine-2,8-diamine], 3 nM.
Regarding `COc1nc(N2CCOCC2)ccc1Nc1ncc2ccnc(NCC(C)(C)C)c2n1` [Example 45, N^2-(2-methoxy-6-morpholinopyridin-3-yl)-N8-neopentylpyrido[3,4-d]pyrimidine-2,8-diamine], the IC50 worked out at 13 nM.
`COc1cc(-c2cnn(C)c2C)ccc1Nc1ncc2ccnc(NCC(C)(C)OC)c2n1` [Example 147, N^2-(4-(1,5-dimethyl-1H-pyrazol-4-yl)-2-methoxyphenyl)-N^8-(2-methoxy-2-methylpropyl)pyrido[3,4-d]pyrimidine-2,8-diamine]: the IC50 turned out to be 2 nM.
To `COCC(CO)Nc1nccc2cnc(Nc3ccc(-c4cnn(C)c4)cc3OC)nc12` (centres unmarked) [Example 131, 3-Methoxy-2-(2-(2-methoxy-4-(1-methyl-1H-pyrazol-4-yl)phenylamino)pyrido[3,4-d]pyrimidin-8-ylamino)propan-1-ol] belongs 4 nM; to `COc1cc(-c2cnn(C)c2)ccc1Nc1ncc2ccnc(NC(C)(C)C)c2n1` [Example 82, N8-tert-butyl-N2-(2-methoxy-4-(1-methyl-1H-pyrazol-4-yl)phenyl)pyrido[3,4-d]pyrimidine-2,8-diamine], 25 nM; to `COC(C)(C)CNc1nccc2cnc(Nc3ccc(-c4cnn(C)c4)cc3OC(F)F)nc12` [Example 204], 2 nM.
With `Cn1cc(-c2ccc(Nc3ncc4ccnc(NCC(C)(C)C)c4n3)c(OC(F)(F)F)c2)cn1` [Example 169, N2-(4-(1-methyl-1H-pyrazol-4-yl)-2-(trifluoromethoxy)phenyl)-N8-neopentylpyrido[3,4-d]pyrimidine-2,8-diamine] the figure was 48 nM.
As for `COc1cc(-c2cnn(C)c2)ccc1Nc1ncc2ccnc(N[S+]([O-])C(C)(C)C)c2n1` (racemic) [Example 143, (±)-N-(2-(2-methoxy-4-(1-methyl-1H-pyrazol-4-yl)phenylamino)pyrido[3,4-d]pyrimidin-8-yl)-2-methylpropane-2-sulfinamide], the IC50 was 5 nM.
With `CCOc1cc(-c2cnn(C)c2)ccc1Nc1ncc2ccnc(N3CCC4(COC4)C3)c2n1` [Example 159, N-(2-ethoxy-4-(1-methyl-1H-pyrazol-4-yl)phenyl)-8-(2-oxa-6-azaspiro[3.4]octan-6-yl)pyrdio[3,4-d]pyrimidin-2-amine] the figure was 5 nM.
